Data: ChEMBL document CHEMBL4196049, “β,γ-diamino acids as building blocks for new analogues of Gramicidin S: Synthesis and biological activity” (Eur J Med Chem, 2018)
≈ marks a conversion by molar mass, not a printed value. Non-standard residues stand in square brackets, D forms with d. Residues, ends and D or L forms follow the SMILES beside them. Orn = NCCC[C@H](N)C(=O)O

Legend:
[1] = Hemolytic activity in human erythrocytes at 100 ug/ml after 30 mins relative to control; assay type: ADME, cell-based, Erythrocyte; details: read-out: Activity
[2] = Hemolytic activity in human erythrocytes at 50 ug/ml after 30 mins relative to control; assay type: ADME, cell-based, Erythrocyte; details: read-out: Activity
[3] = test system: Pseudomonas aeruginosa; test: Antibacterial activity against Pseudomonas aeruginosa CIP 82.118 ATCC 9027 after 48 hrs by two-fold serial dilution method; assay type: functional; details: CIP 82.118 ATCC 9027, 48 h
[4] = test system: Enterococcus faecium; test: Antibacterial activity against Enterococcus faecium CIP 103014 after 48 hrs by two-fold serial dilution method; assay type: functional; details: CIP 103014, 48 h
[5] = test system: Streptococcus salivarius; test: Antibacterial activity against Streptococcus salivarius CIP 102503 after 48 hrs by two-fold serial dilution method; assay type: functional; details: CIP 102503, 48 h
[6] = test system: Bacillus cereus; test: Antibacterial activity against Bacillus cereus CIP 66.24 after 48 hrs by two-fold serial dilution method; assay type: functional; details: CIP 66.24, 48 h
[7] = test system: Enterococcus faecalis; test: Antibacterial activity against Enterococcus faecalis CIP 103015 after 48 hrs by two-fold serial dilution method; assay type: functional; details: CIP 103015, 48 h
[8] = test system: Enterococcus faecalis; test: Antibacterial activity against Enterococcus faecalis CIP 103214 after 48 hrs by two-fold serial dilution method; assay type: functional; details: CIP 103214, 48 h
[9] = test system: Bacillus subtilis; test: Antibacterial activity against Bacillus subtilis subsp. subtilis CIP 52.65 after 48 hrs by two-fold serial dilution method; assay type: functional; details: CIP 52.65, 48 h
[10] = test system: Escherichia coli; test: Antibacterial activity against Escherichia coli CIP 53.126 ATCC 8739 after 48 hrs by two-fold serial dilution method; assay type: functional; details: ATCC 8739 = CIP 53.126, 48 h
[11] = test system: Staphylococcus aureus; test: Antibacterial activity against Staphylococcus aureus subsp. aureus CIP 4.83 ATCC 6538 after 48 hrs by two-fold serial dilution method; assay type: functional; details: CIP 4.83 ATCC 6538, 48 h

## CC(C)C[C@@H]1NC(=O)[C@H](CCCN)NC(=O)[C@H](C(C)C)NC(=O)[C@@H]2CCCN2C(=O)[C@@H](Cc2ccccc2)NC(=O)[C@H](CC(C)C)NC(=O)[C@H](CCCN)NC(=O)[C@H](C(C)C)NC(=O)[C@@H]2CCCN2C(=O)[C@@H](Cc2ccccc2)NC1=O (cyclo(L[dF]PV[Orn]L[dF]PV[Orn]))
[1]
  hemolysis at 0.5 h, 100 ug/ml: 83%
[2]
  hemolysis at 0.5 h, 50 ug/ml: 74%

## CC(C)C[C@@H]1NC(=O)[C@H](CCCN)NC(=O)[C@H](C(C)C)NC(=O)[C@@H]2CCCN2C(=O)[C@@H](Cc2ccccc2)NC(=O)[C@H](CC(C)C)NC(=O)[C@H](CCCN)NC(=O)[C@H](C(C)C)NC(=O)[C@@H]2CCCN2C(=O)[C@@H](Cc2ccccc2)NC1=O (cyclo(V[Orn]L[dF]PV[Orn]L[dF]P))
[3]
  MIC: ≥ 100 µg/mL
[4]
  MIC: 3.12 µg/mL (≈ 2.74 µM)
[5]
  MIC: 3.12 µg/mL (≈ 2.74 µM)
[6]
  MIC: 6.25 µg/mL (≈ 5.48 µM)
[7]
  MIC: 3.12 µg/mL (≈ 2.74 µM)
[8]
  MIC: 3.12 µg/mL (≈ 2.74 µM)
[9]
  MIC: 3.12 µg/mL (≈ 2.74 µM)
[10]
  MIC: 12.5 µg/mL (≈ 11 µM)
[11]
  MIC: 3.12 µg/mL (≈ 2.74 µM)
